# Laboratory results taken from article PMC11385767 (Heliyon, 2024).
# Entries after “also recorded” stand apart in the source; their conditions may differ. No end group written: not given here.
# Key:
# HLA-A*02:01 = HLA-A*02:01 (Homo sapiens, UniProt P04439, D140Y/D185E/D98H/E176V/E277Q/G131W/G231S/I119V/I121R/I166T/I218V/L300P/L318F/N151K/N90K/P208A/P217A/Q86G/Q94H/R138H/R169H/T345S); conditions: ref [20]; cited from earlier work
# [1] = molecular target: HLA-A*11:01 on TAP-deficient T2 cell line (Homo sapiens, UniProt P04439, A114D/D185E/E176A/F33Y/L180Q/S129P/T187R); format: cell-based
Sequence,binding to HLA-A*02:01 (in words) (HLA-A*02:01),"binding ability on T2 cell line (in words, rank) [1]"
FVGEFFTDV,positive binding,–
KLIMTQVSK [KLIMTQVSK],–,VITTDHLK ≈ STIHSIQY > KLIMTQVSK > TTDHLKFSK; also recorded: moderate binding affinity
STIHDSIQY [STIHDSIQY],–,no significant difference in IC50 value; also recorded: excellent binding affinity
TTDHLKFSK [TTDHLKFSK],–,VITTDHLK ≈ STIHSIQY > KLIMTQVSK > TTDHLKFSK; also recorded: lowest binding affinity
VINTTDHLK [VINTTDHLK],–,VITTDHLK ≈ STIHSIQY > KLIMTQVSK > TTDHLKFSK; also recorded: excellent binding affinity
